Measured values taken from patent publication US20260374756A1, “HETEROCYCLIC COMPOUNDS AS INHIBITORS OF MONOACYLGLYCEROL LIPASE (MAGL)” (Hoffmann-La Roche Inc., priority 2022, published 2026).

target: T1, hMAGL (Homo sapiens, UniProt Q99685); experiment: 2-AG assay: MAGL inhibition, hydrolysis of 2-arachidonoylglycerol to arachidonic acid followed by mass spectrometry; format: biochemical
T1 sequence (Q99685 1-303): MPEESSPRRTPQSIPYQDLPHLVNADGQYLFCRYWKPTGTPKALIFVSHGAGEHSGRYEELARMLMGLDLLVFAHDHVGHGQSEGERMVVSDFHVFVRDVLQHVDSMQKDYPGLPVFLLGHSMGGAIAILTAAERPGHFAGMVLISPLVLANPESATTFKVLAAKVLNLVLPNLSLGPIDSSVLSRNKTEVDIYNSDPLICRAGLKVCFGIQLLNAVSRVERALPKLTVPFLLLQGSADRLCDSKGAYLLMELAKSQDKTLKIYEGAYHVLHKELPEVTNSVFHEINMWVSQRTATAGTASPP
How it was run: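 Read-out is LC-MS/MS of arachidonic acid released from 2-arachidonoylglycerol (8 μM final), normalised to d8-arachidonic acid internal standard after acetonitrile quench. Enzyme […] and compound were pre-mixed 15 min, then reacted 30 min, both at RT, in Tris/EDTA buffer with 0.01% Tween-20 and 2.5% DMSO.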

Question: `CS(=O)(=O)c1cnn(CC2CC3(C2)CN(C(=O)N2CC4(CC(n5cnc(C6(O)CC6)n5)C4)C2)C3)c1` [Example 313, [6-[3-(1-hydroxycyclopropyl)-1,2,4-triazol-1-yl]-2-azaspiro[3.3]heptan-2-yl]-[6-[(4-mesylpyrazol-1-yl)methyl]-2-azaspiro[3.3]heptan-2-yl]methanone] was tested. Which IC50 did it give?
Answer: 0.165 µM

Question: Which IC50 does the source give for `Cn1c(CN2CC3(C2)CN(C(=O)N2CC4(CC(n5cnc(C(F)(F)F)n5)C4)C2)C3)nnc1C(F)(F)F` [Example 314, [6-[[4-methyl-5-(trifluoromethyl)-1,2,4-triazol-3-yl]methyl]-2,6-diazaspiro[3.3]heptan-2-yl]-[6-[3-(trifluoromethyl)-1,2,4-triazol-1-yl]-2-azaspiro[3.3]heptan-2-yl]methanone] here?
Answer: 0.123 µM

Question: For `O=C(N1CC2(CCC(Cc3nnc(C(F)(F)F)[nH]3)CC2)C1)N1CC2(CC(n3cnc(C(F)F)n3)C2)C1` [Example 315, [6-[3-(difluoromethyl)-1,2,4-triazol-1-yl]-2-azaspiro[3.3]heptan-2-yl]-[7-[[5-(trifluoromethyl)-4H-1,2,4-triazol-3-yl]methyl]-2-azaspiro[3.5]nonan-2-yl]methanone], which IC50 is on record?
Answer: 0.113 µM

Question: How did the IC50 turn out when `O=C(N1CC2(CC(Cc3nc(CC(F)(F)F)n[nH]3)C2)C1)N1CC2(CC(n3cnc(C(F)F)n3)C2)C1` [Example 316, [6-[3-(difluoromethyl)-1,2,4-triazol-1-yl]-2-azaspiro[3.3]heptan-2-yl]-[6-[[3-(2,2,2-trifluoroethyl)-1H-1,2,4-triazol-5-yl]methyl]-2-azaspiro[3.3]heptan-2-yl]methanone] was run?
Answer: 0.0694 µM

Question: `O=C(N1CC2(CCN(Cc3cc(C(F)(F)F)no3)CC2)C1)N1CC2(CC(n3cnc(C(F)(F)F)n3)C2)C1` [Example 317, [7-[[3-(trifluoromethyl)isoxazol-5-yl]methyl]-2,7-diazaspiro[3.5]nonan-2-yl]-[6-[3-(trifluoromethyl)-1,2,4-triazol-1-yl]-2-azaspiro[3.3]heptan-2-yl]methanone] was tested. Which IC50 did it give?
Answer: 0.0681 µM

Question: Which IC50 does the source give for `O=C(N1CC2(CC(Cc3n[nH]c(C4CC4)n3)C2)C1)N1CC2(CC(n3cnc(C(F)F)n3)C2)C1` [Example 318, [6-[(5-cyclopropyl-1H-1,2,4-triazol-3-yl)methyl]-2-azaspiro[3.3]heptan-2-yl]-[6-[3-(difluoromethyl)-1,2,4-triazol-1-yl]-2-azaspiro[3.3]heptan-2-yl]methanone] here?
Answer: 0.0628 µM

Question: For `CC(C)(C)n1ccnc1CN1CC2(C1)CN(C(=O)N1CC3(CC(n4cnc(C(F)(F)F)n4)C3)C1)C2` [Example 319, [6-[(1-tert-butylimidazol-2-yl)methyl]-2,6-diazaspiro[3.3]heptan-2-yl]-[6-[3-(trifluoromethyl)-1,2,4-triazol-1-yl]-2-azaspiro[3.3]heptan-2-yl]methanone], which IC50 is on record?
Answer: 0.0583 µM

Question: `O=C(N1CC2(CC(Cc3n[nH]c(C(F)(F)F)n3)C2)C1)N1CC2(CC(n3cnc(C(F)F)n3)C2)C1` [Example 320, [6-[3-(difluoromethyl)-1,2,4-triazol-1-yl]-2-azaspiro[3.3]heptan-2-yl]-[6-[[5-(trifluoromethyl)-1H-1,2,4-triazol-3-yl]methyl]-2-azaspiro[3.3]heptan-2-yl]methanone] was tested. Which IC50 did it give?
Answer: 0.0528 µM

Question: Which IC50 does the source give for `O=C(N1CC2(CC(n3cnc(C4CC4)n3)C2)C1)N1CC2(CN(Cc3ccn(CCC(F)(F)F)n3)C2)C1` [Example 321, [6-(3-cyclopropyl-1,2,4-triazol-1-yl)-2-azaspiro[3.3]heptan-2-yl]-[6-[[1-(3,3,3-trifluoropropyl)pyrazol-3-yl]methyl]-2,6-diazaspiro[3.3]heptan-2-yl]methanone] here?
Answer: 0.0491 µM

Question: With `Cn1c(CN2CC3(C2)CN(C(=O)N2CC4(CC(n5cnc(C6CC6)n5)C4)C2)C3)nnc1C(F)(F)F` [Example 322, [6-(3-cyclopropyl-1,2,4-triazol-1-yl)-2-azaspiro[3.3]heptan-2-yl]-[6-[[4-methyl-5-(trifluoromethyl)-1,2,4-triazol-3-yl]methyl]-2,6-diazaspiro[3.3]heptan-2-yl]methanone] as the molecule, how does the IC50 read?
Answer: 0.0467 µM
